This assay concerns CEM cells HIV-1 protection, formazan growth assay. Nature of the assay: NCI AIDS Antiviral Assay. Particulars: for IC50: measured here: growth of uninfected CEM cells. The essentials:
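Screen of anti-HIV-1 activity in human CEM cells using a formazan-based growth measurement at five drug concentrations. Hits with 50% or greater protection were repeated, and confirmation required reproducible complete protection.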

The structures appear in SMILES notation. Activity calls are given as the source filed them.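 How the source made its calls: active means compounds giving half or more protection of infected cells from virus-caused growth loss, again on retest; inactive means the rest.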

As to `C#CCNC(Cc1cnc[nH]1)C(=O)O` (stereo not drawn), the EC50 is greater than 200 µM and the IC50 is greater than 200 µM.

With `Nc1c(S)cc(O)c2c1C(=O)c1ccccc1C2=O`, the EC50 was greater than 100 µM and the IC50 was greater than 100 µM.

On to `CCOC(=O)C12OC(CCC1=O)C(C(=O)OC)=C2C(=O)OC` (stereo not drawn), for which the EC50 was greater than 200 µM and the IC50 is greater than 200 µM.

On to `CCN(CC)C(=S)N/N=C(\C)c1cccc(C)n1`, for which the EC50 is greater than 2 µM and the IC50 worked out at 0.0132 µM.

Turning to `Nc1nc(-c2ccco2)cc(-c2ccco2)n1`, the EC50 is greater than 115 µM and the IC50 is greater than 115 µM.

With `C/C(=N/N(C=O)C[n+]1ccccc1)C(CN(CC(C)C)CC(C)C)C(=O)Nc1ccc(C)cc1C` (stereo not drawn), the EC50 is greater than 69.2 µM and the IC50 is greater than 69.2 µM.

On to `COc1cccc2ccc3c(c12)C(=O)OC31CCc2c(C)cccc21` (stereo not drawn), for which the result was inactive.

For `CCc1ccccc1NC(=O)C(=O)CC(=O)c1sc(Nc2ccccc2Cl)nc1C`, the EC50 was greater than 200 µM and the IC50 stood at 87.1 µM.

On to `O=C(OC[C@H]1OCC(=O)C2(OC(=O)c3ccccc3)C3C=CC(C3)C12)c1ccccc1` (stereo partly drawn), for which the result was inactive.

Consider `COC1OCC(SC(=O)c2ccccc2)C(O)C1O` (stereo not drawn), for which the EC50 was greater than 200 µM and the IC50 turned out to be 141 µM.

For `C=C(Br)CN(C(C)=O)C1CCCCC1`, the EC50 is greater than 200 µM and the IC50 is greater than 200 µM.

With `CSc1cnc2ccccc2c1Sc1cn(C)c2ccccc2c1=O`, the EC50 was greater than 37.2 µM and the IC50 was 31.6 µM.

Take `O=c1[nH]c2cc(Cl)ccc2nc1/C(=N/Nc1ccccc1)C(O)c1ccco1` (stereo not drawn): the EC50 was greater than 575 µM and the concentration for half-maximal inhibition (IC50) was greater than 575 µM.

With `COc1ccc(OC)c(NC(=O)CCC/C(CC(=O)c2ccc(O)c(OC)c2)=N\NC(=O)C[N+](C)(C)C)c1`, the EC50 was greater than 6.61 µM and the IC50 was greater than 6.61 µM.

In the case of `CN(C)CCC(CCN(C)C)=NOC(=O)c1ccccc1`, the EC50 is greater than 692 µM and the IC50 was greater than 692 µM.

As for `COc1ccc2nc3cc(Cl)ccc3c(Nc3ccccc3-c3ccccc3Nc3c4ccc(Cl)cc4nc4ccc(OC)cc34)c2c1`, the EC50 is greater than 4.07 µM and the IC50 is greater than 4.07 µM.

Regarding `COc1ccc(C2=Nc3ccccc3SC(C)C2)cc1` (stereo not drawn), the EC50 is greater than 13.2 µM and the IC50 is greater than 13.2 µM.

Consider `O=C1CCCSCCCC(=O)CCCSCCC1`, for which the EC50 was greater than 34.7 µM and the IC50 was greater than 34.7 µM.

With `C1=CN2C(c3ccccc3)=NON(c3ncccn3)C2N=C1` (stereo not drawn), the EC50 was greater than 46.8 µM and the IC50 is greater than 46.8 µM.

`O=C(O/N=C1/CCC/C1=C\c1ccccc1)c1ccccc1`: the outcome was inactive.

Regarding `CC(=O)O/C=C\OC1CCCC1(c1ccccc1)c1ccccc1` (stereo not drawn), the EC50 was greater than 200 µM and the IC50 was 1.38 µM.

As to `C/C(=N\N)C(CN1CCCCC1)C(c1ccccc1)c1c(O)c2ccccc2oc1=O` (stereo not drawn), the EC50 is greater than 107 µM and the IC50 is 69.2 µM.

Consider `Cc1ccc(NC(=O)/C(=N/NC(=O)CC#N)C2C(=O)N(c3ccccc3)N=C2N)cc1C` (stereo not drawn), for which the EC50 was greater than 219 µM and the half-inhibitory concentration (IC50) came to 37.2 µM.

With `COc1ccc(CN2CCC/C=C/CC(Cl)(Cl)C2=O)cc1`, the EC50 is greater than 110 µM and the IC50 stood at 57.5 µM.

Regarding `O=C(O)c1c2c(c(C(=O)O)c3ccccc13)-c1ccccc1-2`, the outcome was inactive.

`CCC[CH2][Sn]([CH2]CCC)([O]C(=O)c1ccc(OC)c(OC)c1OC)[O][Sn]([CH2]CCC)([CH2]CCC)[O]C(=O)c1ccc(OC)c(OC)c1OC`: the EC50 is greater than 5.75 µM and the IC50 stood at 0.871 µM.

With `O=C1c2ccccc2CCC1(Br)C(Br)c1ccccc1` (stereo not drawn), the EC50 is greater than 200 µM and the IC50 worked out at 5.37 µM.

For `CN(C)CCCNC(=O)CCNC(=O)c1cc(NC(=O)c2cc(NC(=O)c3cc(NC(=O)CCCNC(=O)c4cc(NC(=O)c5cc(NC(=O)c6nccn6C)cn5C)cn4C)cn3C)cn2C)cn1C`, the result was inactive.

Take `Cc1cc2c(cc1O)CC[C@@H]1[C@@H]2CC[C@]2(C)[C@@H](O)CC[C@@H]12`: the EC50 was greater than 200 µM and the IC50 amounted to 4.07 µM.

As for `COc1ccc2c(c1)C(O)NC(=O)O2` (stereo not drawn), the EC50 is greater than 200 µM and the IC50 was 49 µM.

Take `COc1ccc2[nH]c(C(=O)N3CC(CCl)c4c3cc(N)c3ccccc43)cc2c1` (stereo not drawn): the EC50 is greater than 0.2 µM and the IC50 worked out at 0.00158 µM.

As to `C=C([Si](C)(C)C)[Si](C)(C)C`, the EC50 is greater than 209 µM and the IC50 was greater than 209 µM.

For the compound `CCCN(CCCC(NC(C)=O)C(=O)NCc1ccccc1)C(=O)NC` (stereo not drawn), the EC50 is greater than 692 µM and the IC50 was greater than 692 µM.

In the case of `O=C(O)[C@H]1C[C@H](O)CN1C(=O)c1ccccc1SSc1ccccc1C(=O)N1C[C@H](O)C[C@H]1C(=O)O`, the EC50 is greater than 200 µM and the IC50 was greater than 200 µM.

As to `CC1C2Cc3ccc(O)cc3C1(C)CCN2CC1CC1` (stereo not drawn), the EC50 was greater than 200 µM and the concentration for half-maximal inhibition (IC50) was greater than 200 µM.

In the case of `Nc1cccc2c1C(=O)c1cccc(NC(=O)c3ccc4c5c(nsc35)-c3ccccc3C4=O)c1C2=O`, the EC50 is greater than 15.5 µM and the half-maximal inhibitory concentration (IC50) is greater than 15.5 µM.

`NC(=O)N=C(N(Cc1ccccc1)Cc1ccccc1)N(Cc1ccccc1)Cc1ccccc1`: the EC50 was greater than 7.59 µM and the IC50 was determined as 2.24 µM.

With `N#CC1Cc2cc3c(cc21)OCO3` (stereo not drawn), the EC50 was greater than 200 µM and the IC50 is greater than 200 µM.

As to `COC(=O)c1cc(S(=O)(=O)NC2=NCC(C)NN2)c(S)cc1Cl` (stereo not drawn), the EC50 was greater than 200 µM and the IC50 came out at 17 µM.

In the case of `O=C1CSCN1N1CSCC1=O`, the EC50 is greater than 200 µM and the IC50 was greater than 200 µM.

As to `Cc1cc2c(c(=O)n1C)COC2=O`, the result was inactive.

As for `O=C(O)c1ccc(C2C3C=CC(C3)C2[N+](=O)[O-])cc1` (stereo not drawn), the EC50 was greater than 347 µM and the IC50 is greater than 347 µM.

`CS(=O)(=O)OCCC(=O)N1CCN(C(=O)CCOS(C)(=O)=O)CC1`: the EC50 is greater than 200 µM and the IC50 is 35.5 µM.

Regarding `C(/C=C/N1CCCC1)=C\c1nc(N2CCCC2)c2ccccc2n1`, the EC50 is greater than 42.7 µM and the half-inhibitory concentration (IC50) came out at 11.5 µM.

On to `COc1cc2c(c(OC)c1OC)C(=O)[C@H](Br)[C@H]2NC(=O)NCCCl`, for which the EC50 was greater than 200 µM and the IC50 was determined as 32.4 µM.

As for `Cc1ccc(S(=O)(=O)N2CCCSCC2)cc1`, the EC50 is greater than 182 µM and the IC50 is greater than 182 µM.

For `CCOC(=O)C1=C(C)C2C3C(=O)NC(=O)C3C1(C)C1C(=O)NC(=O)C21` (stereo not drawn), the EC50 is greater than 724 µM and the IC50 was greater than 724 µM.

`CNc1nc2cc(OC)c(OC)cc2c(=O)[nH]1`: the EC50 is greater than 200 µM and the IC50 came out at 191 µM.

Take `CC(=O)OCC(CC[CH2][Sn]([Cl])([Cl])[c]1ccccc1)OC(C)=O` (stereo not drawn): the outcome was inactive.

For `COc1c2c3c(ccnc3c3ccccc13)C(=O)N2C`, the EC50 is greater than 200 µM and the IC50 worked out at 9.55 µM.

Turning to `CC(=O)OCC(OC(C)=O)C(OC(C)=O)C(Cn1c(=O)cc(C)c2ccc(C)c(C)c21)OC(C)=O` (stereo not drawn), the EC50 was greater than 200 µM and the IC50 is greater than 200 µM.

Consider `COc1cc(N=Nc2ccccc2)cc(/C=N/NC(N)=S)c1O`, for which the result was inactive.

With `NC(=O)CSc1c2cc(O)ccc2nc2ccc(O)cc12`, the EC50 is greater than 200 µM and the IC50 stood at 36.3 µM.

Take `Cc1cn(CC2=NCC(C)(C)CN2)c(=O)[nH]c1=O`: the EC50 is greater than 200 µM and the IC50 was greater than 200 µM.

Regarding `CCN(CC)c1ccc2c(C)cc(=O)oc2c1`, the EC50 is greater than 219 µM and the IC50 came to 105 µM.

For `CC(=O)Oc1cc(S(=O)(=O)Nc2n[nH]c(N)n2)c(S)cc1Cl`, the EC50 is greater than 200 µM and the half-maximal inhibitory concentration (IC50) was greater than 200 µM.

As for `Oc1c(OCc2nnc(CCCCCCCCc3nnc(COc4ccc5ccccc5c4O)o3)o2)ccc2ccccc12`, the EC50 was greater than 200 µM and the IC50 was greater than 200 µM.

With `CCN(CC)C(=O)C/C(C)=N/NC(=O)c1ccncc1`, the EC50 was greater than 93.3 µM and the IC50 is greater than 93.3 µM.

As to `CCOP(=O)(OCC)/C(C#N)=C/c1ccc(C)o1`, the EC50 was greater than 933 µM and the IC50 was 129 µM.

Regarding `CCOC(=O)C1(Br)C(c2ccccc2)NC(=O)N(C2OC(COC(=O)c3ccccc3)C(OC(=O)c3ccccc3)C2OC(=O)c2ccccc2)C1(C)Br` (stereo not drawn), the EC50 is greater than 15.8 µM and the IC50 was greater than 15.8 µM.

For `On1c(-c2ccccc2)c(-c2c(-c3ccccc3)n(O)c3ccccc23)c2ccccc21`, the EC50 is greater than 316 µM and the IC50 is 132 µM.

For `COc1ccc(/C=C(\C#N)c2ccc(C)cc2)cc1OC`, the EC50 was greater than 200 µM and the IC50 was found to be 33.1 µM.

On to `Nc1cn2ncnc2c(=O)[nH]1`, for which the EC50 is greater than 174 µM and the IC50 is greater than 174 µM.

As for `c1ccc2c(c1)nnn2C1CCCCO1` (stereo not drawn), the EC50 was greater than 200 µM and the IC50 is greater than 200 µM.

With `CS(=O)(=O)CC(Cc1ccccc1)C(=O)O` (stereo not drawn), the result was inactive.

On to `O=C(CC(c1ccccc1)c1c(O)c2ccccc2oc1=O)c1ccccc1` (stereo not drawn), for which the EC50 was greater than 200 µM and the IC50 was found to be 83.2 µM.

Consider `CC(=O)Oc1c(N2CCCCC2)c(C(=O)c2ccccc2)c(O)c2ccn(N(C)C)c12`, for which the EC50 was greater than 200 µM and the IC50 came to 8.32 µM.

On to `CCCCCC(=O)Nc1nc[nH]c1C(N)=O`, for which the EC50 is greater than 200 µM and the IC50 is greater than 200 µM.

With `Cc1ccc2c(c1)CN1c3ccc(C)cc3CN2C1c1ccccc1O`, the result was inactive.

Turning to `CC1CN=C(N(C(=O)Nc2ccc(F)c(Cl)c2)c2ccccc2)S1` (stereo not drawn), the result was inactive.

Regarding `CCc1c(O)cc(=O)oc1-c1ccc(OC)c(OC)c1`, the EC50 was greater than 200 µM and the IC50 was greater than 200 µM.

For `Cc1cc2[nH]c3c(C#N)c4c(c(=O)n3c2cc1C)CCCC4`, the EC50 is greater than 200 µM and the IC50 was greater than 200 µM.

As for `CNS(=O)(=O)NNS(=O)(=O)c1ccc(F)cc1`, the EC50 is greater than 631 µM and the IC50 is 214 µM.

For `COC(=O)/C(C#N)=C(\N)C(Cl)(Cl)Cl`, the result was inactive.

Regarding `CNN1C(=O)c2c(C)c(C)c(C#N)c(N)c2C1=O`, the EC50 was greater than 200 µM and the IC50 was greater than 200 µM.

These data come from PubChem BioAssay AID179 (DTP/NCI, 2004).
